Reference: US9192650B2, “Methods of inhibiting photoreceptor apoptosis by eliciting the Faim2 antiapoptotic pathway” (The Regents of the University of Michigan, priority 2011, dated 2015)
“Also recorded” adds a separate entry of the source.

How the values were obtained:
[1] = test system: c-Jun; experiment: Immunoblot of phosphorylation of JNK-target c-Jun (P-c-Jun) in Fas-AAb treated 661W cells; assay type: cell-based; settings: inhibitor pretreatment 1 hour before Fas-AAb
Protocol: (§1) The 661W cell line was maintained in Dulbecco's modified Eagle's medium containing 10% fetal bovine serum, 300 mg/L glutamine, 32 mg/L putrescine, 40 μL/L of β-mercaptoethanol, and 40 μg/L of both hydrocortisone 21-hemisuccinate and progesterone. The media also contained penicillin (90 units/mL) and streptomycin (0.09 mg/mL). Cells were grown at 37° C. in a humidified atmosphere of 5% CO2 and 95% air.
(§2) Retinas from experimental eyes with detachments and control eyes without detachments were dissected from the RPE-choroid, homogenized, and lysed in buffer containing 10 mM HEPES (pH 7.6), 0.5% IgEPal, 42 mM KCl, 1 mM phenylmethylsulfonyl fluoride (PMSF), 1 mM EDTA, 1 mM EGTA, 1 mM dithiothreitol (DTT), and 5 mM MgCl2 and 1 tablet of protease inhibitors per 10 mL buffer (Complete Mini; Roche Diagnostics GmbH, Madison, Wis.). 661W cells were lysed and homogenized in lysis buffer (as above). The homogenates were incubated on ice and centrifuged at 22,000 g at 4° C. for 60 minutes. The protein concentration of the supernatant was then determined (DC Protein Assay kit; Bio-Rad Laboratories, Hercules, Calif.). The protein samples were separated on SDS-polyacrylamide gels (Tris-HCl Ready Gels; Bio-Rad Laboratories, Hercules, Calif.). […] Protein bands were visualized with Ponceau S staining, and the lanes were assessed for equal loading by densitometry of entire lanes. […]

[2] = test system: ERK; experiment: Immunoblot of ERK phosphorylation (P-ERK) in Fas-AAb treated 661W cells; assay type: cell-based; settings: inhibitor pretreatment 1 hour before Fas-AAb
Protocol: as §1, §2

[3] = test system: caspase 8; experiment: Luminescent caspase 8 activity assay in 661W cells; assay type: cell-based
Protocol: as §1
Caspase 8 and Caspase 3 activity were measured by a commercially available luminescent tetrapeptide cleavage assay kits (Promega, Madison, Wis.). The 661W cells were seeded in 96-well plates (Nunc, Rochester, N.Y.) at 1000-1500 cells/well for 24 hours prior to treatment or siRNA transfection. Cells were treated with 500 ng/mL of Fas-agonistic Jo2 monoclonal antibody (BD Biosciences, Franklin Lakes, N.J.). In some experiments, cells were pretreated with MEK inhibitor U0126, JNK inhibitor SP600125, or DMSO. Caspase activity was measured at various time points by incubating the cells with the pro-luminescent substrate in 96-well plates following manufacturer's instructions. Controls included untreated cells and wells with no cells. Luminescence was measured in a plate reader luminometer (Turner Biosystems, Sunnyvale, Calif.). […]

[4] = test system: caspase 3; experiment: Luminescent caspase 3 activity assay in 661W cells; assay type: cell-based
Protocol: as §1
(§3) Caspase 8 and Caspase 3 activity were measured by a commercially available luminescent tetrapeptide cleavage assay kits (Promega, Madison, Wis.). The 661W cells were seeded in 96-well plates (Nunc, Rochester, N.Y.) at 1000-1500 cells/well for 24 hours prior to treatment or siRNA transfection. Cells were treated with 500 ng/mL of Fas-agonistic Jo2 monoclonal antibody (BD Biosciences, Franklin Lakes, N.J.). In some experiments, cells were pretreated with MEK inhibitor U0126, JNK inhibitor SP600125, or DMSO. Caspase activity was measured at various time points by incubating the cells with the pro-luminescent substrate in 96-well plates following manufacturer's instructions. Controls included untreated cells and wells with no cells. Luminescence was measured in a plate reader luminometer (Turner Biosystems, Sunnyvale, Calif.).

[5] = test system: 661W cells; experiment: Luminescent cell viability assay, Fas-mediated cell death of 661W cells; assay type: cell-based; settings: 661W cells treated with Fas-AAb
Protocol: as §1
as §3, with “Cell viability was” for “Caspase 8 and Caspase 3 activity were”, “luminescent” for “luminescent tetrapeptide cleavage”, “kit” for “kits”, “treatment.” for “treatment or siRNA transfection.”, “Cell viability” for “Caspase activity”, “Sunnyvale” for “Sunnyvale,”

[6] = test system: Faim2; experiment: Immunoblot of Faim2 protein levels in 661W cells; assay type: cell-based, mouse; settings: 661W cells treated with Fas-AAb
Protocol: as §1, §2

[7] = 661W cells treated with Fas-AAb
[8] = 661W cells, 24 hours of Fas-AAb treatment

Compound	Concentration of maximal effect on Fas-AAb-dependent c-Jun phosphorylation [1] [µM]	Concentration of maximal inhibition of Fas-AAb-induced ERK phosphorylation [2] [µM]	Effect on Fas-AAb-induced phosphorylation of ERK ([2]; protein isolated 4 hours later)	Maximally-effective dose for increasing caspase 8 activity [3, 7] [µM]	Caspase 8 activity in presence of inhibitor [3, 8]	Maximally-effective dose for increasing caspase 3 activity [4, 7] [µM]	Caspase 3 activity in presence of inhibitor [4, 8]	Fas-AAb-mediated cell death in presence of inhibitor [5]	Faim2 levels in Fas-AAb treated cells in presence of MAPK inhibitor [6]	Faim2 level by densitometry ([6]; 10 μM dose of inhibitor)
Oc1c2ccccc2c2c3c(cccc13)N=N2 [SP600125]	10 to 20									
N#CC(=C(/N)Sc1ccccc1N)/C(C#N)=C(\N)Sc1ccccc1N [U0126]		10	effective in preventing	10	dose-dependent increase	10	dose-dependent increase	increased Fas-AAb-mediated cell death	dose-dependent inhibition; also recorded: reduced the levels of Faim2	significant decrease
